Key:
[1] = test system: picornaviruses (CVB1, HRV-A2, HRV-A23, EV-68); assay: Anti-picornavirus cytopathic effect (CPE) reduction assay on HeLa H1 cells; format: cell-based; settings: 48 h, category from averaging EC50 values of four picornaviruses (CVB1, HRV-A2, HRV-A23, EV68), second symbol in parentheses
Method: Anti-Picornavirus Assay in Mammalian Cell Culture
The antiviral activity of selected compounds was tested using a cytopathic effect (CPE) reduction assay on HeLa H1 cells (ATCC CRL-1958). Briefly, cells were seeded in 96-well dishes (2×10^4 cells/well) in DMEM medium (Life technologies) supplemented with 10% FBS and PenStrep solution (100 U/mL Penicillin and 100 μg/mL streptomycin) and incubated at 37° C., 5% CO2 overnight. The next day, cells were pre-treated with serial dilutions of the compound in DMEM medium supplemented with 2% FBS and PenStrep for 2 h at 37° C., 5% CO2. Next, cells were infected with virus (CVB1, HRV-A2, HRV-A23, EV-68) at an multiplicity of infection (MOI) which results in a complete virus-induced CPE within 2 days in control wells (infected and vehicle-treated). After 48 h, supernatants were aspirated and 50 μl/well of CellTiterBlue reagent (Promega) diluted 1:5 in DMEM+2% FBS, was added to the cells. Plates were returned to the incubator and allowed to develop for 1.5 h. After that, plates were equilibrated to RT and subsequently, fluorescence was recorded (Excitation wavelength: 560 nm; emission wavelength: 590 nm) using a SpectraMax M5 multimode plate reader. Viability of cells was calculated according to the formula: V=(RFUCpd−RFUVeh/(RFUM−RFUVeh), where RFUCpd refers to infected and compound-treated cells, RFUVeh to infected and vehicle-treated cells and RFUM to uninfected and vehicle treated cells. Half-maximal effective concentrations (EC50) were calculated by non-linear regression analysis using the drc package in R (R Development. Core Team, 2005). EC50 categories as presented in Table 2 were calculated by averaging the EC50 values from four picornaviruses (CVB1, HRV-A2, HRV-A23, EV68).

PLA2G16 = biological target: T1, PLA2G16 (Homo sapiens, UniProt P53816); assay: Enzyme activity assay for PLA2G16 (Red/Green BODIPY PC-A2 fluorescence); format: biochemical; settings: His-tagged PLA2G16, 4 min pre-incubation, compound 2 nM to 50 μM; first symbol in parentheses
T1 construct: Hexa-His (N); made in house; host or cells: E. coli BL21(DE3)
T1 sequence (P53816 1-162): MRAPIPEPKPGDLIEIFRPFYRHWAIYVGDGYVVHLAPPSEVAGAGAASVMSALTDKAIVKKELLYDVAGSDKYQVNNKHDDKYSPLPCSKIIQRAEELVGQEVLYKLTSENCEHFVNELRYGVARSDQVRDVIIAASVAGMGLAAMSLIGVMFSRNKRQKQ
From the text: Purification and Enzyme Activity Assay for PLA2G16
A cDNA for PLA2G16 (NM_007069) was custom-synthesized by Genscript (Piscataway, USA) and inserted into a pET-based bacterial expression vector [Moffatt, B. A. and Studier, F. W. (1986) J. Mol. Biol. 189, 113-130; Rosenberg, A. H., Lade, B. N., Chui, D., Lin, S., Dunn, J. J., and Studier, F. W. (1987) Gene 56, 125-135], enabling the expression of N-terminally Hexa-His-tagged PLA2G16. E. coli BL21(DE3) (Agilent) were transformed with pET-His-PLA2G16 according to the manufacturer's instructions and plated on Carbenicillin-containing agar plates (final concentration: 100 μg/mL). A single clone was inoculated in 100 mL LB medium supplemented with 100 μg/mL Carbenicillin and the inoculated culture was grown at 37° C. overnight in a rotary shaker. On the next day, the bacterial culture was diluted in LB medium supplemented with 100 μg/mL Carbenicillin (30 mL overnight culture in 800 mL total culture volume). Bacteria were grown at 37° C. until the OD600 reached 0.6. Gene expression was induced by addition of 1 mM isopropyl-β-D-thiogalactopyranosid (IPTG) for 2 h at 18° C. Subsequently, bacteria were harvested by centrifugation (15 min; 10,000×g; 4° C.) and frozen at −80° C. The bacterial pellet was resuspended in Buffer A (50 mM Tris/HCl pH 7.5, 500 mM NaCl, 5% glycerol, 5 mM β-Mercaptoethanol and 1 mM PMSF) and lysed by addition of 1 mg/mL lysozyme (Sigma Aldrich) and 100 μg/mL DNasel-(Roche). The sample was incubated at 30° C. for 30 min to allow lysis to occur. Then, the lysate was cleared by centrifugation (15,000×g, 15 min, 4° C.) and incubated with 1.5 mL Ni-NTA agarose suspension (Qiagen) for 60 min at 4° C. The Ni-NTA agarose was washed with 10 mL Buffer A. Bound protein was eluted by applying a manual gradient of Buffer A supplemented with increasing concentrations of imidazole (Sigma Aldrich; 25/50/75/100/250 mM). Purified fractions were analyzed by SDS-PAGE followed by Coomassie staining to assess the purity.
Activity of the protein was assessed as follows:
Red/Green BODIPY® PC-A2 (Invitrogen, 1 mM in DMSO) was mixed with equal volumes of 1,2-Dioleoyl-sn-glycero-3-phosphocholine (DOPC; Sigma Aldrich, 10 mM in Ethanol) and 1,2-Dioleoyl-sn-glycero-3-phospho-rac-(1-glycerol) (DOPG; Sigma Aldrich, 10 mM in Ethanol) and 0.5 volumes of Cholesterol (CHOL; Sigma Aldrich, 10 mM in Ethanol) and vortexed for 5 s. The mixture (Red/Green BODIPY® PC-A2/DOPC/DOPG/CHOL) was diluted 1:91.4 in activity assay buffer (50 mM Tris/HCl pH 8.5, 100 mM NaCl) using a small-orifice pipette tip under constant vortexing. In the following, this preparation will be referred to as the “substrate solution”.
In order to evaluate their inhibitory potential, compounds were dissolved at 10 mM concentration in DMSO and directly spotted into assay plates (Corning, Cat. No. 3576) using acoustic liquid transfer (Labcyte Echo 525). Each compound was spotted at increasing concentrations, ranging from 2 nM to 50 μM (concentration in the final assay volume). 50 μl of PLA2G16 enzyme solution (diluted in activity buffer, supplemented with 5 mM L-Glutathione; Sigma Aldrich) was pre-incubated with compounds for 4 min., followed by addition of 50 μl of substrate solution. Fluorescence was recorded immediately after substrate addition for a total time of 10 min. using a SpectraMax M5 multimode reader (Excitation wavelength: 480 nm, emission wavelength: 530 nm). The relative increase of fluorescence over time is referred to as the enzyme activity. Half-maximal inhibitory concentrations (IC50) were derived by non-linear regression analysis using the drc package in R (R Development. Core Team, 2005).

SMILES: O=C(NC1CC1)C(=O)[C@H]1CN(c2cncnc2)C(=O)[C@@H]1Cc1ccccc1 (racemic) [FP-54, Rac-2-[(3R,4R)-4-benzyl-5-oxo-1-(pyrimidin-5-yl)pyrrolidin-3-yl]-N-cyclopropyl-2-oxoacetamide]
- EC50 [1]: < 1000 nM
- IC50 (PLA2G16): < 1000 nM

SMILES: O=C(NC1CC1)C(=O)[C@H]1CN(c2cc(Cl)cc(=O)[nH]2)C(=O)[C@@H]1Cc1ccccc1 (racemic) [FP-71, Rac-2-[(3R,4R)-4-benzyl-1-(4-chloro-6-oxo-1,6-dihydropyridin-2-yl)-5-oxopyrrolidin-3-yl]-N-cyclopropyl-2-oxoacetamide]
- EC50 [1]: < 1000 nM
- IC50 (PLA2G16): < 1000 nM

SMILES: O=C(NCC1CC1)C(=O)[C@H]1CNC(=O)[C@@H]1Cc1ccccc1 (racemic) [FP-1, Rac-2-[(3R,4R)-4-benzyl-5-oxopyrrolidin-3-yl]-N-(cyclopropylmethyl)-2-oxoacetamide]
- EC50 [1]: < 1000 nM
- IC50 (PLA2G16): < 1000 nM

SMILES: CC(C)(C)NC(=O)C(=O)[C@H]1CNC(=O)[C@@H]1c1ccccc1 (racemic) [FP-17, Rac-N-tert-butyl-2-oxo-2-[(3R,4S)-5-oxo-4-phenylpyrrolidin-3-yl]acetamide]
- EC50 [1]: < 1000 nM
- IC50 (PLA2G16): < 1000 nM

SMILES: O=C(NC1CC1)C(=O)[C@@H]1CN(c2cncnc2)C(=O)[C@H]1Cc1ccccc1 (single isomer, unassigned) [FP-90]
- EC50 [1]: 1000 to 10000 nM
- IC50 (PLA2G16): < 1000 nM

SMILES: O=C(NC1CC1)C(=O)[C@H]1CN(Cc2ccccc2)C(=O)[C@@H]1c1ccccc1 (racemic) [FP-99, Rac-2-[(3R,4S)-1-benzyl-5-oxo-4-phenylpyrrolidin-3-yl]-N-cyclopropyl-2-oxoacetamide]
- EC50 [1]: 1000 to 10000 nM
- IC50 (PLA2G16): < 1000 nM

SMILES: O=C(NC1CC1)C(=O)[C@H]1CN(c2cc(Cl)cc(OCc3ccccc3)n2)C(=O)[C@@H]1Cc1ccccc1 (racemic) [FP-72, Rac-2-[(3R,4R)-4-benzyl-1-[6-(benzyloxy)-4-chloropyridin-2-yl]-5-oxopyrrolidin-3-yl]-N-cyclopropyl-2-oxoacetamide]
- EC50 [1]: < 1000 nM
- IC50 (PLA2G16): < 1000 nM

SMILES: O=C(NCC1CC1)C(=O)[C@@H]1CNC(=O)[C@H]1c1ccccc1 (single isomer, unassigned) [FP-85]
- EC50 [1]: > 10000 nM
- IC50 (PLA2G16): < 1000 nM

SMILES: CC(C)CNC(=O)C(=O)[C@H]1CN(CC(N)=O)C(=O)[C@@H]1Cc1ccccc1 (racemic) [FP-40, Rac-2-[(3R,4R)-4-benzyl-1-(carbamoylmethyl)-5-oxopyrrolidin-3-yl]-N-(2-methylpropyl)-2-oxoacetamide]
- EC50 [1]: < 1000 nM
- IC50 (PLA2G16): < 1000 nM

SMILES: COCCN1C[C@H](C(=O)C(=O)NC2CC2)[C@@H](Cc2ccccc2)C1=O (racemic) [FP-39, Rac-2-[(3R,4R)-4-benzyl-1-(2-methoxyethyl)-5-oxopyrrolidin-3-yl]-N-cyclopropyl-2-oxoacetamide]
- EC50 [1]: 1000 to 10000 nM
- IC50 (PLA2G16): < 1000 nM

SMILES: O=C(NC1CC1)C(=O)[C@H]1CN(CCN2CCCC2=O)C(=O)[C@@H]1Cc1ccccc1 (racemic) [FP-48, Rac-2-[(3R,4R)-4-benzyl-5-oxo-1-[2-(2-oxopyrrolidin-1-yl)ethyl]pyrrolidin-3-yl]-N-cyclopropyl-2-oxoacetamide]
- EC50 [1]: 1000 to 10000 nM
- IC50 (PLA2G16): < 1000 nM

SMILES: CC(C)CNC(=O)C(=O)[C@@H]1CN(CC(=O)N(C)C)C(=O)[C@H]1Cc1ccccc1 (single isomer, unassigned) [FP-91]
- EC50 [1]: > 10000 nM
- IC50 (PLA2G16): 1000 to 10000 nM

SMILES: O=C(NCC(F)(F)F)C(=O)[C@H]1CNC(=O)[C@@H]1c1ccccc1 (racemic) [FP-22, Rac-2-oxo-2-[(3R,4S)-5-oxo-4-phenylpyrrolidin-3-yl]-N-(2,2,2-trifluoroethyl)acetamide]
- EC50 [1]: 1000 to 10000 nM
- IC50 (PLA2G16): < 1000 nM

SMILES: Cc1cc(CN2C[C@H](C(=O)C(=O)NC(C)C)[C@@H](c3ccccc3)C2=O)no1 (racemic) [FP-101, Rac-2-[(3R,4S)-1-[(5-methyl-1,2-oxazol-3-yl)methyl]-5-oxo-4-phenylpyrrolidin-3-yl]-2-oxo-N-(propan-2-yl)acetamide]
- EC50 [1]: 1000 to 10000 nM
- IC50 (PLA2G16): < 1000 nM
